One data set deals with OXYS rats. Kind of data set: Cataract and macular dystrophy in senescence-accelerated OXYS rats. The format is in vivo, rat. Conditions: for 2nd stage of cataract / 2nd stage of macular degeneration / changes in the macular area of the retina: OXYS rats age 3 months after oral course; for eyes with lens changes: OXYS rats age 3 months after oral course from 1.5 to 3 months. The method, then:
The animals were housed in cages (45*35*35 cm) and kept under standard laboratory conditions (at 22±1° C., 60% relative humidity, and natural light), provided with a standard rodent diet (PK-120-1, Ltd. ‘Laboratorsnab’, Russia), and given water ad libitum. At the age of 1.5 months after preliminary pupil dilation with 1% tropicamide ophthalmic the rats were conducted through ophthalmoscopic examination using direct ophthalmoscop “Betta”, Germany. […] We use Vitamin E for a comparison with test antioxidants. Animals received the compounds on a small piece of dried bread before a regular meal, and the control group of animals received the same piece of bread without any compound. After completing the course of antioxidants the animals were retested with ophthalmoscope. To avoid human factor in the evaluation of compound effects the researcher who conducted the ophthalmoscopic examination was not told which of the animals received antioxidants. The lens state was evaluated according to the classification system accepted in clinical practice with grades ranging from 0 to 3: score 0—the lens is clear; score 1—spotted weak cloudiness; score 2—multiple spots of cloudiness and score 3—intense cloudiness of the lens core and nucleus.

The nature of data set [1]: Accumulation of MitoQ in tissues when fed to animals (prior art). The format is in vivo. As to conditions: feeding to animals. The method, then:
It should also be noted that despite some promising observations concerning the MitoQ action, there are several results and calculations that cast doubt on the possibility of practical application of this compound. For example, it was shown in experiments with cell culture that MitoQ provides its antioxidant and anti-apoptotic action at concentration about 1 μM in the medium. It means that MitoQ concentrations inside the mitochondria should be 1 mM provided that membrane potential is about 180 mV. On the other hand, it was shown by Smith R A, Porteous C M, Gane A M, Murphy M P, Proc Natl Acad Sci USA, 2003, 100(9):5407-12 when feeding MitoQ to animals, the accumulation of MitoQ in the most oxidative stress sensitive tissues (heart and brain) amounts up to 100 pmoles/gram, which corresponds to the MitoQ concentration inside heart mitochondria equal to 100 nM. This is more than 1000 times lower than the concentration shown to be efficient in the cell culture experiments. Formally, the concentration can be raised by the increase of amounts of MitoQ fed to animals, but this is, in fact, not possible due to the toxicity of the compound.

In data set [2] the test system is Hela cells.
Another data set deals with cell culture. As to conditions: cited from earlier work.
The conditions of data set [3]: feeding to animals; cited from earlier work.
The next data set relates to cells in culture. As to conditions: cited from earlier work.
Another data set concerns Yarrowia lipolytica. The experiment in a line: Protection of yeast cells from death caused by hydrogen peroxide. As to conditions: FIG. 14; α-tocopherol 25 μM. The format is cell-based.
In data set [4] the test system is Hela cells. Kind of data set: Transmission of apoptotic signal between inducer and recipient slides. The format is cell-based, human. As to conditions: 2500 E/ml added to medium for joint incubation. The method, then:
HeLa cells were used in these experiments. Cells grown on a glass slide were treated with different apoptosis-inducing agents (tumor necrosis factor (TNF), staurosporine, H2O2) for 3 h. Then the glass slide with cells (inducer) was washed to remove these reagents and placed into Petri plate to come into contact with glass slide (recipient) with cells grown in the absence of any apoptosis-inducing agent. After 16-18 h of subsequent growth and staining the cells with Hoechst 33342 as described above, apoptosis at both glass slides was analyzed.
Thus the main mediator of apoptosis signal was H2O2.

On to `[Br-].[K+]` [KBr], for which, in the data set with OXYS rats, the “2nd stage of cataract” value is 57%, the “2nd stage of macular degeneration” value is 13%, the “changes in the macular area of the retina” value came to 87% and the “eyes with lens changes” value stood at 93%.

As to `COC1=C(OC)C(=O)C(CCCCCCCCCC[P+](c2ccccc2)(c2ccccc2)c2ccccc2)=C(C)C1=O` [MitoQ], the “corresponding concentration inside heart mitochondria” value in data set [1] amounted to 100 nM. In addition, in the data set on Hela cells [2] (100 μM hydrogen peroxide), the “LD50 in the presence of hydrogen peroxide” value was 4 µM. Moreover, the “LD50 (concentrations at which 50% cells die)” value with Hela cells [2] (2 h of incubation, no hydrogen peroxide) is 7 µM. Also, the “concentration in the medium giving antioxidant and anti-apoptotic action” value in the data set on cell culture is reported as “about 1 μM”. Also, in data set [3], the “accumulation in heart and brain” value is recorded as “up to 100 pmoles/gram”.

Consider `Cc1c(C)c2c(c(C)c1O)CCC(C)(CC[P+](c1ccccc1)(c1ccccc1)c1ccccc1)O2` (stereo not drawn) [MitoVitE], for which the “concentration with no toxic effect on cells in culture” value in the data set with cells in culture is 10 µM. Also, in the data set on cells in culture (effect retained in the presence of uncoupler FCCP), the “prevention of apoptosis in cultured cells” value is “able to prevent apoptosis in cultured cells”.

For `C[C@@H]1C[C@@H]([C@H](O)CC2CC(=O)NC(=O)C2)C(=O)[C@@H](C)C1` [cycloheximide D, reference compound], the “effect on survival compared among protectants” value with Yarrowia lipolytica is listed as “very similar”.

For `Cc1c(C)c2c(c(C)c1O)CC[C@@](C)(CCC[C@H](C)CCC[C@H](C)CCCC(C)C)O2` [tocopherol, α-tocopherol, reference compound], in the data set with Yarrowia lipolytica, the “effect on survival compared among protectants” value is reported as “very similar”.

For `CC(=O)Oc1c(C)c(C)c2c(c1C)CCC(C)(CCC[C@H](C)CCC[C@H](C)CCCC(C)C)O2` (stereo partly drawn) [vitamin E, alfa-tocopherol acetate], in the data set with OXYS rats, the “2nd stage of cataract” value was 12%, the “2nd stage of macular degeneration” value was determined as 8%, the “changes in the macular area of the retina” value stood at 54% and the “eyes with lens changes” value stood at 58%.

B1: catalase: catalase (2500 E/ml) added into the medium for joint incubation (protein, UniProt P00432 2-527, looked up)
Catalase: ADNRDPASDQMKHWKEQRAAQKPDVLTTGGGNPVGDKLNSLTVGPRGPLLVQDVVFTDEMAHFDRERIPERVVHAKGAGAFGYFEVTHDITRYSKAKVFEHIGKRTPIAVRFSTVAGESGSADTVRDPRGFAVKFYTEDGNWDLVGNNTPIFFIRDALLFPSFIHSQKRNPQTHLKDPDMVWDFWSLRPESLHQVSFLFSDRGIPDGHRHMNGYGSHTFKLVNANGEAVYCKFHYKTDQGIKNLSVEDAARLAHEDPDYGLRDLFNAIATGNYPSWTLYIQVMTFSEAEIFPFNPFDLTKVWPHGDYPLIPVGKLVLNRNPVNYFAEVEQLAFDPSNMPPGIEPSPDKMLQGRLFAYPDTHRHRLGPNYLQIPVNCPYRARVANYQRDGPMCMMDNQGGAPNYYPNSFSAPEHQPSALEHRTHFSGDVQRFNSANDDNVTQVRTFYLKVLNEEQRKRLCENIAGHLKDAQLFIQKKAVKNFSDVHPEYGSRIQALLDKYNEEKPKNAVHTYVQHGSHLSAREKANL
For B1, the “apoptosis of recipient cells” value in the data set on Hela cells [4] is “prevented apoptosis of recipient cells”.

The values above are taken from patent US9328130B2, “Method of treating organism by biologically active compounds specifically delivered into mitochondria, pharmaceutical composition required for the use of the method and a compound applicable for this purpose” (MITOTECH S.A., priority 2005, dated 2016).
